Consider 18 compounds from US10428080B2, “TBK/IKK inhibitor compounds and uses thereof” (Merck Patent GmbH, priority 2015, dated 2019).

Where a name gives a salt, the structure may show the parent alone. Read-outs that look alike come from different tables or passages of the source. Where only a bound is given, the exact number is not on record here.

For orientation: IC50 means the concentration at which inhibition is half-maximal.

For one assay, the target named is T1, TBK1 (Homo sapiens, UniProt Q9UHD2).
T1 sequence (Q9UHD2 1-729): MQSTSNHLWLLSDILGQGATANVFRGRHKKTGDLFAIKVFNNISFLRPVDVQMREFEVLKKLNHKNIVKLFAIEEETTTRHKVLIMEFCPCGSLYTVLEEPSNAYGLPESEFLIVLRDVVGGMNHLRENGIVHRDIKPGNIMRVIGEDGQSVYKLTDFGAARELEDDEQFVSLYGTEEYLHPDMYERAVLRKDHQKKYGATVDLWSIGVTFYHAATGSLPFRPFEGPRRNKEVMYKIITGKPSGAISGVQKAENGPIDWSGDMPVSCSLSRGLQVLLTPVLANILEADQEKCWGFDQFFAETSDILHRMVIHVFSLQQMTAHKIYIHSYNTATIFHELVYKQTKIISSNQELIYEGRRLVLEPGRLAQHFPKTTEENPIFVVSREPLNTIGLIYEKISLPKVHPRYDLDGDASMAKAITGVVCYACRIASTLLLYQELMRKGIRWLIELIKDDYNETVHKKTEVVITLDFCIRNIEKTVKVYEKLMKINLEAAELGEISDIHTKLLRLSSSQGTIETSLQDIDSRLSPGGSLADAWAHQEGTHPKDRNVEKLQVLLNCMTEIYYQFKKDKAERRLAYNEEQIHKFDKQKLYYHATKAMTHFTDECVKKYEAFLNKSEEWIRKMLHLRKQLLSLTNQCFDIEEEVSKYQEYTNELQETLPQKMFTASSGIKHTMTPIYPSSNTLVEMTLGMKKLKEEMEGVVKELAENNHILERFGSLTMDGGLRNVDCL
Put plainly: TBK Biochemical Assay. A digest of the protocol: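 Caliper LabChip mobility-shift readout of substrate and product after 90 min of TBK1 reaction at 25° C and stop-buffer addition. Compounds tested in 1:4 serial dilution over 10 points from 30 uM final at 1% DMSO; staurosporine 10 uM final defines full inhibition.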

Assay [1] has as its system phosphorylation of the IRF-3 protein in MDA-MB-468 cells. Put plainly: pIRF3 immunocytochemistry cell based assay. The following applies: Homo sapiens. In a few lines:
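After 2 h stimulation with Poly(I:C) (10 ug/ml), following 1 h compound pre-treatment (10-point, 3-fold dilution, top 10 uM), MDA-MB-468 cells were fixed and stained with anti-pIRF3 antibody. pIRF3 fluorescence was normalized to PI staining or cell count on an Acumen cytometer. IC50 curves were derived from this.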

The next assay addresses T2, IKKε (Homo sapiens, UniProt Q14164).
T2 sequence (Q14164 1-716): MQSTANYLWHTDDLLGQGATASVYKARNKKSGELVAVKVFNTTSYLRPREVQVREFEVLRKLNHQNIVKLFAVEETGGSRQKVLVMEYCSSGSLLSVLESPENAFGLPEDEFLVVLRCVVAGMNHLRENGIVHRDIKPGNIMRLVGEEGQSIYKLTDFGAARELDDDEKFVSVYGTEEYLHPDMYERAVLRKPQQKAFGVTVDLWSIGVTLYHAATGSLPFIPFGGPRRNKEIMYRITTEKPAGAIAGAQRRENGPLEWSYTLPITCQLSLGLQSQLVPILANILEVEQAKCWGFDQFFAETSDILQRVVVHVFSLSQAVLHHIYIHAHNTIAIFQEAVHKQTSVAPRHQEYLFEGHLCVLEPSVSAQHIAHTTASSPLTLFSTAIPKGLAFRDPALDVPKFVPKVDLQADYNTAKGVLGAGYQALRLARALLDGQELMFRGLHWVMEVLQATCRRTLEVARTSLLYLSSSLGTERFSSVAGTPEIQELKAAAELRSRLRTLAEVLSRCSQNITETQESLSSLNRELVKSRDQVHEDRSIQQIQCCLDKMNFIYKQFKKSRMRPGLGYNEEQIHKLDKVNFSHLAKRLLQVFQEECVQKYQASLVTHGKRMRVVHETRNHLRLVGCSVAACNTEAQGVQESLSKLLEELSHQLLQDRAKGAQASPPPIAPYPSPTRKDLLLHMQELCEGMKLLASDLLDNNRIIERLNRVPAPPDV
Put plainly: IKKe Biochemical Assay. A digest of the protocol: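 Activity was measured as mobility-shift separation of phosphorylated from unphosphorylated substrate on a LabChip EZ Reader. Compound was titrated from 30 uM final in 10 points, 1:4 steps, with 1% DMSO, and enzyme plus substrate reacted 90 min at 25° C before stop buffer. Control wells held 10 uM staurosporine.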

[2] abbreviates: MDA-MB-468 cells, Poly(I:C) stimulation, read-out: pIRF3 IC50.

Consider `COc1cc(C(=O)NCCC2CCNCC2)ccc1-c1cc2nccc(-c3ccc(OC4CCOCC4)c(C#N)c3)c2o1` [Compound 118, 4-{7-[3-Cyano-4-(tetrahydro-pyran-4-yloxy)-phenyl]-furo[3,2-b]pyridin-2-yl}-3-methoxy-N-(2-piperidin-4-yl-ethyl)-benzamide hydrochloride], for which the IC50 on TBK1 (read-out: TBK1 IC50) was less than 0.1 µM; in assay [1] (setting [2]), 0.1 to 1 µM; at IKKε (read-out: IKKε IC50), less than 0.1 µM.
As for `COc1cc(C(=O)NC2CN3CCC2CC3)ccc1-c1cc2nccc(-c3ccc(NC4C5COCC54)c(C#N)c3)c2o1` (stereo not drawn) [Compound 119, N-(1-Aza-bicyclo[2.2.2]oct-3-yl)-4-{7-[3-cyano-4-(3-oxa-bicyclo[3.1.0]hex-6-ylamino)-phenyl]-furo[3,2-b]pyridin-2-yl}-3-methoxy-benzamide], the 50% inhibitory concentration (IC50) against TBK1 (TBK1 IC50) was less than 0.1 µM; in assay [1] (MDA-MB-468, read-out: pIRF3 IC50) it was less than 0.1 µM; on IKKε, less than 0.1 µM.
As for `CN(C)C(=O)c1ccc(-c2cc3nccc(-c4ccc(N5CC[C@@H](F)C5)c(C#N)c4)c3o2)cc1` [Compound 120, 4-{7-[3-Cyano-4-((R)-3-fluoro-pyrrolidin-1-yl)-phenyl]-furo[3,2-b]pyridin-2-yl}-N,N-dimethyl-benzamide], the figures for the IC50 (at TBK1 (read-out: TBK1 IC50); in assay [1] (setting [2]); at IKKε (read-out: IKKε IC50)) were less than 0.1 µM, 0.1 to 1 µM and less than 0.1 µM, respectively.
As to `COc1cc(C(=O)NC2CC(O)C2)ccc1-c1cc2nccc(-c3ccc(NC4CCOCC4)c(C#N)c3)c2o1` (stereo not drawn) [Compound 122, 4-{7-[3-Cyano-4-(tetrahydro-pyran-4-ylamino)-phenyl]-furo[3,2-b]pyridin-2-yl}-N-(3-hydroxy-cyclobutyl)-3-methoxy-benzamide], the IC50 on TBK1 (read-out: TBK1 IC50) was less than 0.1 µM; in assay [1] (setting [2]), 0.1 to 1 µM; at IKKε (read-out: IKKε IC50), less than 0.1 µM.
For the compound `CN(C)C(=O)c1cccc(-c2cc3nccc(-c4ccc(OC5CCOCC5)c(C#N)c4)c3o2)c1` [Compound 123], the IC50 at TBK1 (read-out: TBK1 IC50) is less than 0.1 µM; in assay [1] (setting [2]) it was 1 to 5 µM; on IKKε (read-out: IKKε IC50), less than 0.1 µM.
As to `CC1(O)CN(C(=O)c2ccc(-c3cc4nccc(-c5ccc(OC6CCOCC6)c(C#N)c5)c4o3)cc2)C1` [Compound 124, 5-{2-[4-(3-Hydroxy-3-methyl-azetidine-1-carbonyl)-phenyl]-furo[3,2-b]pyridin-7-yl}-2-(tetrahydro-pyran-4-yloxy)-benzonitrile], the figures for the IC50 (on TBK1 (read-out: TBK1 IC50); in assay [1] (setting [2]); at IKKε (read-out: IKKε IC50)) were less than 0.1 µM, 1 to 5 µM and less than 0.1 µM, respectively.
As to `COc1cc(C(=O)NC2CCN(C(=O)OC(C)(C)C)C2)ccc1-c1cc2nccc(-c3ccc(OC4CCOCC4)c(C#N)c3)c2o1` (stereo not drawn) [Compound 125, 3-(4-{7-[3-Cyano-4-(tetrahydro-pyran-4-yloxy)-phenyl]-furo[3,2-b]pyridin-2-yl}-3-methoxy-benzoylamino)-pyrrolidine-1-carboxylic acid tert-butyl ester], the 50% inhibitory concentration (IC50) on TBK1 (read-out: TBK1 IC50) is less than 0.1 µM; in assay [1] (setting [2]), 0.1 to 1 µM; on IKKε (read-out: IKKε IC50), less than 0.1 µM.
On to `CN(C)C(=O)c1ccc(-c2cc3nccc(-c4ccc(OC5CCOCC5F)c(C#N)c4)c3o2)cc1` (stereo not drawn) [Compound 129], for which the values for the IC50 (on TBK1 (read-out: TBK1 IC50); in assay [1] (setting [2]); on IKKε (read-out: IKKε IC50)) were less than 0.1 µM, 0.1 to 1 µM and less than 0.1 µM, respectively.
Consider `COc1cc(C(=O)NC2CCNC2)ccc1-c1cc2nccc(-c3ccc(NC4CCOCC4)c(C#N)c3)c2o1` (stereo not drawn) [Compound 130, 4-{7-[3-Cyano-4-(tetrahydro-pyran-4-ylamino)-phenyl]-furo[3,2-b]pyridin-2-yl}-3-methoxy-N-pyrrolidin-3-yl-benzamide], for which the IC50 on TBK1 (read-out: TBK1 IC50) is less than 0.1 µM; in assay [1] (setting [2]), 0.1 to 1 µM; on IKKε (read-out: IKKε IC50), less than 0.1 µM.
Consider `N#Cc1cc(-c2ccnc3cc(-c4ccc(C(=O)N5CCN(C6CC6)CC5)cc4)oc23)ccc1OC1CCOCC1` [Compound 133, 5-{2-[4-(4-Cyclopropyl-piperazine-1-carbonyl)-phenyl]-furo[3,2-b]pyridin-7-yl}-2-(tetrahydro-pyran-4-yloxy)-benzonitrile], for which the IC50 at TBK1 (read-out: TBK1 IC50) was less than 0.1 µM; in assay [1] (setting [2]), 1 to 5 µM; on IKKε (read-out: IKKε IC50), less than 0.1 µM.
Regarding `COc1cc(C(=O)NC(C)(C)CN(C)C)ccc1-c1cc2nccc(-c3ccc(NC4CCOCC4)c(C#N)c3)c2o1` [Compound 134, 4-{7-[3-Cyano-4-(tetrahydro-pyran-4-ylamino)-phenyl]-furo[3,2-b]pyridin-2-yl}-N-(2-dimethylamino-1,1-dimethyl-ethyl)-3-methoxy-benzamide], the half-maximal inhibitory concentration (IC50) was less than 0.1 µM at TBK1 (read-out: TBK1 IC50), 0.1 to 1 µM in assay [1] (setting [2]) and less than 0.1 µM on IKKε (read-out: IKKε IC50).
For `N#Cc1cc(-c2ccnc3cc(-c4ccc(C(=O)N[C@H]5CNCC[C@@H]5F)cc4)oc23)ccc1OC1CCOCC1` [Compound 135, 4-{7-[3-Cyano-4-(tetrahydro-pyran-4-yloxy)-phenyl]-furo[3,2-b]pyridin-2-yl}-N-((3S,4S)-4-fluoro-piperidin-3-yl)-benzamide], the figures for the IC50 (on TBK1 (read-out: TBK1 IC50); in assay [1] (setting [2]); on IKKε (read-out: IKKε IC50)) were less than 0.1 µM, 0.1 to 1 µM and less than 0.1 µM, respectively.
`N#Cc1cc(-c2ccnc3cc(-c4ccc(C(=O)N5CC[C@H](F)C5)cc4)oc23)ccc1OC1CCOCC1` [Compound 136, 5-{2-[4-((S)-3-Fluoro-pyrrolidine-1-carbonyl)-phenyl]-furo[3,2-b]pyridin-7-yl}-2-(tetrahydro-pyran-4-yloxy)-benzonitrile]: the IC50 at TBK1 (read-out: TBK1 IC50) is less than 0.1 µM; in assay [1] (setting [2]) it was 1 to 5 µM; at IKKε (read-out: IKKε IC50), less than 0.1 µM.
As for `N#Cc1cc(-c2ccnc3cc(-c4cnn(C5COC5)c4)oc23)ccc1OC1CCOCC1` [Compound 138], the half-inhibitory concentration (IC50) on TBK1 (read-out: TBK1 IC50) is less than 0.1 µM; in assay [1] (setting [2]) it was 1 to 5 µM; at IKKε (read-out: IKKε IC50) it was less than 0.1 µM.
Turning to `N#Cc1cc(-c2ccnc3cc(-c4ccc(C(=O)NC5CN6CCC5CC6)cc4F)oc23)ccc1OC1CCOCC1` (stereo not drawn) [Compound 139, N-(1-Aza-bicyclo[2.2.2]oct-3-yl)-4-{7-[3-cyano-4-(tetrahydro-pyran-4-yloxy)-phenyl]-furo[3,2-b]pyridin-2-yl}-3-fluoro-benzamide], the IC50 is less than 0.1 µM on TBK1 (read-out: TBK1 IC50), 0.1 to 1 µM in assay [1] (setting [2]) and less than 0.1 µM at IKKε (read-out: IKKε IC50).
`COc1cc(C(=O)N(C)C)ccc1-c1cc2nccc(-c3ccc(OC4CCCNC4)c(C#N)c3)c2o1` (stereo not drawn) [Compound 140, 4-{7-[3-Cyano-4-(piperidin-3-yloxy)-phenyl]-furo[3,2-b]pyridin-2-yl}-3-methoxy-N,N-dimethyl-benzamide Hydrochloride]: the IC50 (at TBK1 (read-out: TBK1 IC50); in assay [1] (setting [2]); on IKKε (read-out: IKKε IC50)) was less than 0.1 µM in each case.
Take `N#Cc1cc(-c2ccnc3cc(-c4ccc(C(=O)N[C@@H]5CNCC[C@H]5F)cc4)oc23)ccc1OC1CCOCC1` [Compound 141, 4-{7-[3-Cyano-4-(tetrahydro-pyran-4-yloxy)-phenyl]-furo[3,2-b]pyridin-2-yl}-N-((3R,4R)-4-fluoro-piperidin-3-yl)-benzamide]: the results for the IC50 (on TBK1 (read-out: TBK1 IC50); in assay [1] (setting [2]); on IKKε (read-out: IKKε IC50)) were less than 0.1 µM, 0.1 to 1 µM and less than 0.1 µM, respectively.
For the compound `N#Cc1cc(-c2ccnc3cc(-c4cccc(C(=O)NC5CN6CCC5CC6)c4)oc23)ccc1OC1CCOCC1` (stereo not drawn) [Compound 143], the IC50 at TBK1 (read-out: TBK1 IC50) is less than 0.1 µM; in assay [1] (setting [2]), 0.1 to 1 µM; at IKKε (read-out: IKKε IC50) it was less than 0.1 µM.
